“And” between values parts separate entries of the source, which are not always exact repeats. Equal values may be shown once. “Also recorded” adds a separate entry of the source.
Assays:
animals = animals exposed to other D2 receptor antagonists; cited from earlier work
agalactic mares = assay: Preparation for parturition, udder development and lactation in agalactic mares; format: in vivo;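 note: treated mares were free of fescue toxicosis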
mares = assay: Stimulation of follicular growth and ovulation in mares out of season
quarter horse mares = assay: Daily feed intake of mares; format: in vivo
Excerpt: Ten quarter horse mares were housed in individual pens and fed a standard feed concentrate weighing 0.5% of each mares' initial body weight at approximately 8:00 A.M. each day during the study. In addition, hay was fed to the mare ad libitum each day. During the night, the mares were placed in a dry lot having no access to food.

[1] = individual agalactic mares, 1.1 mg/kg per day orally, 1.1 mg/kg/day
[2] = individual mares, domperidone .55 mg/kg orally daily in molasses, January and February

| Structure (SMILES) | Neuroleptic side effects (animals) | Milk production (agalactic mares; horses, orally about 0.2 mg/kg to about 3.3 mg/kg of body weight) | Did Mare Have A Live Foal? (agalactic mares; individual agalactic mares, 1.1 mg/kg per day orally) | Days Before (−) or After Expected Foaling that Mare Foaled (agalactic mares; [1]) | Mare's Udder Development After Treatment Began (agalactic mares; [1]) | Was Mare Lactating Normally After Foaling? (agalactic mares; [1]) | Adverse side effects (agalactic mares; subcutaneous, amounts greater than 1.32 mg/kg) | Mares treated that ovulated (mares; 0.55 mg/kg orally daily, only two of nine control mares ovulated) | Date of Ovulation (mares; [2]) | No. of Days of Treatment Before Ovulation (mares; [2]) | Neurological side effects (mares; mares, 0.55 mg/kg orally daily, during the study) | Daily hay consumption after treatment began (quarter horse mares; each of the ten mares, 1.1 mg/kg orally daily) | Avg. Hay Consumption After Treatment (quarter horse mares; individual mares, 1.1 mg/kg orally daily for two weeks, hay ad libitum, 1.1 mg/kg) |
| --- | --- | --- | --- | --- | --- | --- | --- | --- | --- | --- | --- | --- | --- |
| CCN(CC)CCNC(=O)c1cc(Cl)c(N)cc1OC [metoclopramide] | neuroleptic side effects have been observed |  |  |  |  |  |  |  |  |  |  |  |  |
| CCN1CCCC1CNC(=O)c1cc(S(N)(=O)=O)ccc1OC (centres unmarked) [sulpiride] | neuroleptic side effects have been observed |  |  |  |  |  |  |  |  |  |  |  |  |
| O=c1[nH]c2ccccc2n1CCCN1CCC(n2c(=O)[nH]c3cc(Cl)ccc32)CC1 [domperidone] |  | stimulated | Yes | −1 Days and +8 Days and +15 Days and +14 Days and 0 Days and −3 Days (2×) and +3 Days and −2 Days and +12 Days | Increased Weekly; also recorded: Developed Adequately; also recorded: Very Slight; also recorded: Gradual Development; also recorded: Normal Development; also recorded: No Response; also recorded: Immediate; also recorded: Dripping Milk 5th Day | Yes (11×) and No. but drug | without any adverse side effects | nine of the ten | Feb. 9; also recorded: Feb. 6; also recorded: Feb. 12; also recorded: Feb. 8; also recorded: Feb. 15; also recorded: Feb. 5; also recorded: Feb. 7; also recorded: Feb. 13; also recorded: d/n ovulate; also recorded: Feb. 10 | 18 Days (2×) and 21 Days and 17 Days and 24 Days and 14 Days and 16 Days and 22 Days and d/n ovulate and 19 Days | No neurological side effects were observed | increased | 13.0 lbs and 12.2 lbs and 14.1 lbs (2×) and 13.2 lbs and 14.2 lbs and 12.3 lbs and 13.5 lbs and 15.0 lbs and 12.1 lbs |

Reference: patent US6455546B2, “Method for promoting ovulation, parturition, and lactation in mammals” (Clemson University, priority 1996, dated 2002)
